Measured values published in patent US20240116985A1, “STAPLED PEPTIDES AND METHODS THEREOF” (priority 2020, published 2024).
Like-named read-outs stand apart in the source and are kept apart here.

What was measured:
[1] = molecular target: T1, full-length beta-Catenin (Uniprot ID P35222) (Homo sapiens, UniProt P35222); assay: Fluorescence polarization IC50 (beta-catenin / 5FAM-TCF4 10-53 competition); type: binding
T1 construct: 10 nM full-length beta-Catenin (Uniprot ID P35222)
T1 sequence (P35222 1-781): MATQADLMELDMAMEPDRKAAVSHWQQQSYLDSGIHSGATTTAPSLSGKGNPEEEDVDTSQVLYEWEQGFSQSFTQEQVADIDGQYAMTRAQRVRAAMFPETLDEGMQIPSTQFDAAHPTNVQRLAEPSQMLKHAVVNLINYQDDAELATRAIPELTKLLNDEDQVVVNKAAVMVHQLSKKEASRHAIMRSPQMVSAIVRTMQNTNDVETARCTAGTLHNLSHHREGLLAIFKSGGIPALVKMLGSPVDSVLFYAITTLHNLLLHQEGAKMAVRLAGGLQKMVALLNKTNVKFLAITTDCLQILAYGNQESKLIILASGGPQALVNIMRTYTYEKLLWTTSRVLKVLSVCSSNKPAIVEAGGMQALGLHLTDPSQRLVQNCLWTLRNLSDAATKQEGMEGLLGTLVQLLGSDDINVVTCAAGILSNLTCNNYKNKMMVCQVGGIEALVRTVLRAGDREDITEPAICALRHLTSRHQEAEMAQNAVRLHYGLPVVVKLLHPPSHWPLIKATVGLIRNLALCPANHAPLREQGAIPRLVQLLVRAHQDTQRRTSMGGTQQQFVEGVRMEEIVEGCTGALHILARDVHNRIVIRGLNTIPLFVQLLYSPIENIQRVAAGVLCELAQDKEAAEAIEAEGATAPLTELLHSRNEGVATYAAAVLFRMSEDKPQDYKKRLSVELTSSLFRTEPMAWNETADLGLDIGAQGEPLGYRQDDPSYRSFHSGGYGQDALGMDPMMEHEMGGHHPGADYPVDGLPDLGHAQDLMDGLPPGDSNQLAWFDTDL

CHI Log D procedure = type: physicochemical; conditions: for chromatographic logD: pH 7.4, CHI Log D; for CHI Log D: pH 7.4
[2] = fluorescence polarization, read-out: beta-Catenin FP IC50
[3] = Table E2-1, read-out: beta-Catenin FP IC50

Row | SMILES | chromatographic logD (CHI Log D procedure) | IC50 [1, 2] | CHI Log D (CHI Log D procedure) | also measured
1 | CC(=O)N1CCC[C@]12CC=CCCCC1(CCCC=CCCCCCC[C@@](C)(C(=O)N[C@@H](Cc3ccccc3)C(=O)N[C@@H](Cc3csc4ccccc34)C(=O)N[C@@H](CCC(N)=O)C(N)=O)NC(=O)[C@H](CC(N)=O)NC(=O)[C@H](Cc3cccc(F)c3)NC(=O)[C@H](C)NC(=O)[C@H](C)NC(=O)[C@H](CCC(=O)O)NC(=O)[C@H](CC(=O)O)NC1=O)NC(=O)[C@H](C)NC(=O)[C@H](CC(=O)O)NC2=O (stereo partly drawn) [I-454, Ac-PL3-Asp-Ala-B5-Asp-Glu-Ala-Ala-3FF-Asn-S8-Phe-BztA-Gln-NH2] | 2.05 | 125 nM |  | 
2 | CC(=O)N1CCC[C@]12CC=CCCCC1(CCCC=CCCCCCC[C@@](C)(C(=O)N[C@@H](Cc3ccccc3)C(=O)N[C@@H](Cc3csc4ccccc34)C(=O)N[C@@H](Cc3c[nH]cn3)C(N)=O)NC(=O)[C@H](CCC(N)=O)NC(=O)[C@H](Cc3ccccc3)NC(=O)[C@H](C)NC(=O)[C@H](C)NC(=O)[C@H](CC(=O)O)NC(=O)[C@H](CC(=O)O)NC1=O)NC(=O)[C@H](CC(C)C)NC(=O)[C@H](CC(=O)O)NC2=O (stereo partly drawn) [I-560, Ac-PL3-Asp-Leu-B5-Asp-Asp-Ala-Ala-Phe-Gln-S8-Phe-BztA-His-NH2] |  | 81 nM | 2.391 | IC50 ([1]; read-out: FP EC50): 81 nM
3 | CC(=O)N1CCC[C@]12CC=CCCCC1(CCCC=CCOC(=O)N(C)CCC[C@@](C)(C(=O)N[C@@H](Cc3cccc(F)c3)C(=O)N[C@@H](Cc3csc4ccccc34)C(=O)N[C@@H](CCC(N)=O)C(N)=O)NC(=O)[C@H](CCC(N)=O)NC(=O)[C@H](Cc3ccccc3)NC(=O)[C@H](C)NC(=O)[C@H](C)NC(=O)[C@H](Cc3c[nH]cn3)NC(=O)[C@H](CC(=O)O)NC1=O)NC(=O)[C@H](C)NC(=O)[C@H](CC(=O)O)NC2=O (stereo partly drawn) [I-400, Ac-PL3-Asp-Ala-B5-Asp-His-Ala-Ala-Phe-Gln-SeN-3FF-BztA-Gln-NH2] | 1.92 | 3590 nM |  | 
4 | CC(=O)N1CCC[C@]12CC=CCCCC1(CCCC=CCCCCCC[C@@](C)(C(=O)N[C@@H](Cc3cc(F)cc(F)c3)C(=O)N[C@@H](Cc3csc4ccccc34)C(=O)N[C@@H](CCC(N)=O)C(N)=O)NC(=O)[C@H](C(C)C)NC(=O)[C@H](Cc3ccccc3)NC(=O)[C@H](C)NC(=O)[C@H](C)NC(=O)[C@H](CCC(=O)O)NC(=O)[C@H](CC(=O)O)NC1=O)NC(=O)[C@H](C)NC(=O)[C@H](CC(=O)O)NC2=O (stereo partly drawn) [I-394, Ac-PL3-Asp-Ala-B5-Asp-Glu-Ala-Ala-Phe-Val-S8-35FF-BztA-Gln-NH2] | 3.86 | 5000 nM |  | 
5 | CC[C@H](C)[C@@H]1NC(=O)[C@H](CC(=O)O)NC(=O)[C@]2(CC=CCCCC3(CCCC=CCCCCCC[C@@](C)(C(=O)N[C@@H](Cc4ccccc4)C(=O)N[C@@H](Cc4csc5ccccc45)C(=O)N[C@@H](CCN)C(N)=O)NC(=O)[C@H](CCC(N)=O)NC(=O)[C@H](Cc4ccccc4)NC(=O)[C@H](C)NC(=O)[C@H](C)NC(=O)[C@H](CC(=O)O)NC(=O)[C@H](CC(=O)O)NC3=O)NC1=O)CCCN2C(C)=O (stereo partly drawn) [I-482, Ac-PL3-Asp-Ile-B5-Asp-Asp-Ala-Ala-Phe-Gln-S8-Phe-BztA-Dab-NH2] | 2.48 | 118 nM |  | 
6 | CC[C@@H]1NC(=O)[C@H](CC(=O)O)NC(=O)[C@]2(CC=CCCCC3(CCCC=CCCCCCC[C@@](C)(C(=O)N[C@@H](Cc4ccccc4)C(=O)N[C@@H](Cc4csc5ccccc45)C(=O)N[C@@H](CCC(N)=O)C(N)=O)NC(=O)[C@H](CC(N)=O)NC(=O)[C@H](Cc4ccccc4)NC(=O)[C@H](C)NC(=O)[C@H](C)NC(=O)[C@H](CC(=O)O)NC(=O)[C@H](CC(=O)O)NC3=O)NC1=O)CCCN2C(C)=O (stereo partly drawn) [I-572, Ac-PL3-Asp-Abu-B5-Asp-Asp-Ala-Ala-Phe-Asn-S8-Phe-BztA-Gln-NH2] |  | 73 nM | 2.064 | IC50 ([1]; read-out: FP EC50): 73 nM
7 | CC[C@H](C)[C@H](NC(=O)[C@H](CC(=O)O)NC(=O)C(C)(C)NC(C)=O)C(=O)N[C@]1(C)CCN(C)C(=O)OCC=CCCCCC[C@@](C)(C(=O)N[C@@H](Cc2ccccc2)C(=O)N[C@@H](Cc2c[nH]c3ccccc23)C(N)=O)NC(=O)[C@H](CCC(N)=O)NC(=O)[C@H](Cc2ccccc2)NC(=O)[C@H](C)NC(=O)[C@H](C)NC(=O)[C@H](CCC(=O)O)NC(=O)[C@H](CC(=O)O)NC1=O [I-147, Ac-Aib-Asp-Ile-RdN-Asp-Glu-Ala-Ala-Phe-Gln-S7-Phe-Trp-NH2] | 1.4 |  |  | IC50 [1, 3]: 1640 nM
8 | CC(=O)N1CCC[C@]12CC=CCCCC1(CCCC=CCCCCCC[C@@](C)(C(=O)N[C@@H](Cc3ccccc3)C(=O)N[C@@H](Cc3csc4ccccc34)C(=O)N[C@@H](CCC(N)=O)C(N)=O)NC(=O)[C@H](CC(N)=O)NC(=O)[C@H](Cc3ccc(N)cc3)NC(=O)[C@H](C)NC(=O)[C@H](C)NC(=O)[C@H](CCC(=O)O)NC(=O)[C@H](CC(=O)O)NC1=O)NC(=O)[C@H](C)NC(=O)[C@H](CC(=O)O)NC2=O (stereo partly drawn) [I-461, Ac-PL3-Asp-Ala-B5-Asp-Glu-Ala-Ala-4AmPhe-Asn-S8-Phe-BztA-Gln-NH2] | 1.94 | 125 nM |  | 
9 | CC(=O)N1CCC[C@]12CC=CCCCC1(CCCC=CCCCCCC[C@@](C)(C(=O)N[C@@H](Cc3ccccc3)C(=O)N[C@@H](Cc3csc4ccccc34)C(=O)N[C@@H](Cc3c[nH]cn3)C(N)=O)NC(=O)[C@H](CC(N)=O)NC(=O)[C@H](Cc3ccccc3)NC(=O)[C@H](C)NC(=O)[C@H](C)NC(=O)[C@H](CC(=O)O)NC(=O)[C@H](CC(=O)O)NC1=O)NC(=O)[C@H](CCC(C)C)NC(=O)[C@H](CC(=O)O)NC2=O (stereo partly drawn) [I-583, Ac-PL3-Asp-hLeu-B5-Asp-Asp-Ala-Ala-Phe-Asn-S8-Phe-BztA-His-NH2] |  | 69 nM | 2.563 | IC50 ([1]; read-out: FP EC50): 69 nM
10 | CC(=O)N1CCC[C@]12CC=CCCCC1(CCCC=CCOC(=O)N(C)CC[C@@](C)(C(=O)N[C@@H](Cc3ccccc3)C(=O)N[C@@H](Cc3c[nH]c4ccccc34)C(=O)N[C@@H](CCC(N)=O)C(N)=O)NC(=O)[C@H](C(C)C)NC(=O)[C@H](Cc3ccccc3)NC(=O)[C@H](C)NC(=O)[C@H](C)NC(=O)[C@H](CC(=O)O)NC(=O)[C@H](CC(=O)O)NC1=O)NC(=O)[C@H](C)NC(=O)[C@H](CC(=O)O)NC2=O (stereo partly drawn) [I-55, Ac-PL3-Asp-Ala-B5-Asp-Asp-Ala-Ala-Phe-Val-SdN-Phe-Trp-Gln-NH2] | 1.35 |  |  | IC50 [1, 3]: 5000 nM

Second part, led by results:

Row | chromatographic logD (CHI Log D procedure) | IC50 [1, 2] | CHI Log D (CHI Log D procedure) | SMILES | also measured
11 | 2.82 |  |  | CC(=O)N1CCC[C@]12CC=CCCCC1(CCCC=CCCCCCC[C@@](C)(C(=O)N[C@@H](Cc3ccccc3C(F)(F)F)C(=O)N[C@@H](Cc3csc4ccccc34)C(=O)N[C@@H](CCC(N)=O)C(N)=O)NC(=O)[C@H](CC(N)=O)NC(=O)[C@H](Cc3ccccc3)NC(=O)[C@H](C)NC(=O)[C@H](C)NC(=O)[C@H](CN(CC(=O)O)CC(F)(F)F)NC(=O)[C@H](CC(=O)O)NC1=O)NC(=O)[C@H](CC(C)(C)C)NC(=O)[C@H](CC(=O)O)NC2=O (stereo partly drawn) [I-934, Ac-PL3-Asp-Npg-B5-Asp-TfeGA-Ala-Ala-Phe-Asn-S8-2F3MeF-BztA-Gln-NH2] | IC50 ([1]; read-out: beta-Catenin FP IC50): 69 nM
12 |  | 49 nM | 2.607 | CC[C@H](C)[C@@H]1NC(=O)[C@H](CC(=O)O)NC(=O)[C@]2(CC=CCCCC3(CCCC=CCCCCCC[C@@](C)(C(=O)N[C@@H](Cc4ccsc4)C(=O)N[C@@H](Cc4csc5ccccc45)C(=O)N[C@@H](CCC(N)=O)C(N)=O)NC(=O)[C@H](CC(N)=O)NC(=O)[C@H](Cc4ccccc4)NC(=O)[C@H](C)NC(=O)[C@H](C)NC(=O)[C@H](CN(CC(=O)O)CC(F)(F)F)NC(=O)[C@H](CC(=O)O)NC3=O)NC1=O)CCCN2C(C)=O (stereo partly drawn) [I-700, Ac-PL3-Asp-Ile-B5-Asp-TfeGA-Ala-Ala-Phe-Asn-S8-3Thi-BztA-Gln-NH2] | IC50 ([1]; read-out: FP EC50): 49 nM
13 | 1.9 | 5000 nM |  | CC[C@H](C)[C@@H]1NC(=O)C[C@@H](CC(=O)O)NC(=O)[C@]2(CC=CCCCC3(CCCC=CCCCCCC[C@@](C)(C(=O)N[C@@H](Cc4ccccc4)C(=O)N[C@@H](Cc4csc5ccccc45)C(=O)N[C@@H](CCC(N)=O)C(N)=O)NC(=O)[C@H](CCC(N)=O)NC(=O)[C@H](Cc4ccccc4)NC(=O)[C@H](C)NC(=O)[C@H](C)NC(=O)[C@H](CCC(=O)O)NC(=O)[C@H](CC(=O)O)NC3=O)NC1=O)CCCN2C(C)=O (stereo partly drawn) [I-672, Ac-PL3-SbGlu-Ile-B5-Asp-Glu-Ala-Ala-Phe-Gln-S8-Phe-BztA-Gln-NH2] | 
14 |  |  | 1.745 | CC(=O)N1CCC[C@]12CC=CCCCC1(CCCC=CCCCOC(=O)N3CC[C@@](C(=O)N[C@@H](Cc4ccsc4)C(=O)N[C@@H](Cc4csc5ccccc45)C(=O)N[C@@H](CCC(N)=O)C(N)=O)(C3)NC(=O)[C@H](CO)NC(=O)[C@H](Cc3ccccc3)NC(=O)[C@H](C)NC(=O)[C@H](C)NC(=O)[C@H](Cc3cccc(C(=O)O)c3)NC(=O)[C@H](CC(=O)O)NC1=O)NC(=O)[C@H](CC(C)(C)C)NC(=O)[C@H](CC(=O)O)NC2=O (stereo partly drawn) [I-978, Ac-PL3-Asp-Npg-B5-Asp-3COOHF-Ala-Ala-Phe-Ser-PyrS2-3Thi-BztA-Gln-NH2] | IC50 ([1]; fluorescence polarization, beta-catenin, read-out: FP EC50): 112 nM; IC50 ([1]; read-out: beta-Catenin FP IC50): 112 nM
